Four compounds from patent publication US9441012B2, “Fluorinated epoxyketone-based compounds and uses thereof as proteasome inhibitors” (FLUORINOV PHARMA INC., priority 2012, dated 2016) can be followed below.

What all share (experiment): NCI 60 human tumor cell line screen (SRB)
Format in all cases: cell-based

In experiment [1] the test system is SF-539. Conditions: SF-539 (CNS Cancer); 48 h. The procedure, abridged: (§1)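 Cells plated 24 h before dosing, with time-zero plates TCA-fixed at drug addition; five concentrations (10-fold or ½-log dilutions) added and incubated 48 h at 37 °C, 5% CO2. Adherent cells fixed with 10% TCA, stained with 0.4% SRB, absorbance read at 515 nm; GI50, TGI and LC50 derived from percentage growth versus time zero and control.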

Experiment [2] deals with HCC-2998. The conditions noted are these: HCC-2998 (Colon Cancer); 48 h. The procedure, abridged:
as §1

Experiment [3] has as its system UO-31. The conditions noted are these: UO-31 (Renal Cancer); 48 h. The procedure, abridged:
as §1

Experiment [4] deals with K-562. Conditions: K-562 (Leukemia); 48 h. The procedure, abridged:
as §1

Experiment [5] relates to ACHN. The conditions noted are these: ACHN (Renal Cancer); 48 h. The procedure, abridged:
as §1

Experiment [6] has as its system LOX IMVI. Conditions: LOX IMVI (Melanoma); 48 h. The procedure, abridged:
as §1

For experiment [7], the system named is HS 578T. Conditions: HS 578T (Breast Cancer); 48 h. The procedure, abridged: as §1
Experiment [8] deals with CAKI-1. The conditions noted are these: CAKI-1 (Renal Cancer); 48 h.

Take `Cc1ncc(C(=O)N[C@@H](COC(F)F)C(=O)N[C@@H](COC(F)F)C(=O)N[C@@H](Cc2ccccc2)C(=O)[C@@]2(C)CO2)s1` [Example 1, 2-methyl-thiazole-5-carboxylic acid ((S)-1-{(S)-1-[(S)-1-benzyl-2-((R)-2-methyloxiranyl)-2-oxo-ethylcarbamoyl]-2-difluoromethoxyethylcarbamoyl}-2-difluoromethoxyethyl)-amide]: the Log10GI50 is on record as −7.15 in experiment [1]; −6.74 in experiment [2]; −5.84 in experiment [3]; −6.50 in experiment [4]; −6.53 in experiment [5]; −6.96 in experiment [6]. For the same compound, the Log10GI50 was −7.33 in experiment [7] and −6.40 in experiment [8]. Moreover, the Log10LC50 in experiment [1] was −4.27; in experiment [2] it was −6.15; in experiment [3] it was −4.59; in experiment [4], more than −4.00; in experiment [5], more than −4.00; in experiment [6] it was −6.16. Further, the Log10LC50 in experiment [7] and in experiment [8] was more than −4.00 each time. Also, the Log10TGI50 in experiment [1] is −6.44; in experiment [2] it was −6.45; in experiment [3] it was −5.32; in experiment [4], more than −4.00; in experiment [5], −4.81; in experiment [6], −6.56. The Log10TGI50 is recorded as −5.44 in experiment [7] and −5.28 in experiment [8].
On to `CC(C)C[C@H](NC(=O)[C@H](Cc1ccccc1)NC(=O)[C@H](COC(F)F)NC(=O)CN1CCOCC1)C(=O)[C@@]1(C)CO1` [Example 25, (2S)-2-[[(2S)-3-(difluoromethoxy)-2-[(2-morpholinoacetyl)amino]propanoyl]amino]-N-[(1S)-3-methyl-1-[(2R)-2-methyloxirane-2-carbonyl]butyl]-3-phenyl-propanamide], for which the Log10GI50 is recorded as −7.63 in experiment [1]; −7.74 in experiment [2]; −6.62 in experiment [3]; −7.41 in experiment [4]; −7.01 in experiment [5]; −7.73 in experiment [6]. Moreover, the Log10GI50 in experiment [7] is on record as −7.54; in experiment [8] it was −6.72. Further, the Log10LC50 is recorded as −6.48 in experiment [1]; −7.20 in experiment [2]; −5.17 in experiment [3]; more than −4.00 in experiment [4]; more than −4.00 in experiment [5]; −7.10 in experiment [6]. The Log10LC50 in experiment [7] and in experiment [8] was more than −4.00 throughout. The Log10TGI50 in experiment [1] is on record as −7.26; in experiment [2] it was −7.47; in experiment [3], −5.95; in experiment [4] it was more than −4.00; in experiment [5], more than −4.00; in experiment [6], −7.42. The Log10TGI50 in experiment [7] is given as −6.24; in experiment [8], −6.09.
As for `C[C@]1(C(=O)[C@H](Cc2ccccc2)NC(=O)[C@H](COC(F)F)NC(=O)[C@H](COC(F)F)NC(=O)CN2CCOCC2)CO1` [Example 26, (S)-N-{(S)-1-[(S)-1-Benzyl-2-((R)-2-methyl-oxiranyl)-2-oxo-ethylcarbamoyl]-2-difluoromethoxyethyl}-3-difluoromethoxy-2-(2-morpholin-4-yl-acetylamino)-propio-namide], the Log10GI50 in experiment [1] is on record as −7.63; in experiment [2], −7.74; in experiment [3], −6.62; in experiment [4] it was −7.41; in experiment [5], −7.01; in experiment [6], −7.73. Further, the Log10GI50 in experiment [7] is recorded as −7.54; in experiment [8] it was −6.72. The Log10LC50 in experiment [1] is −6.48; in experiment [2], −7.20; in experiment [3] it was −5.17; in experiment [4], more than −4.00; in experiment [5] it was more than −4.00; in experiment [6] it was −7.10. Besides, the Log10LC50 in experiment [7] and in experiment [8] was more than −4.00 throughout. For the same compound, the Log10TGI50 in experiment [1] is given as −7.26; in experiment [2] it was −7.47; in experiment [3], −5.95; in experiment [4] it was more than −4.00; in experiment [5], more than −4.00; in experiment [6] it was −7.42. Moreover, the Log10TGI50 was −6.24 in experiment [7] and −6.09 in experiment [8].
In the case of `C[C@]1(C(=O)[C@H](Cc2ccccc2)NC(=O)[C@H](Cc2ccccc2)NC(=O)[C@H](COC(F)F)NC(=O)CN2CCOCC2)CO1` [Example 29], the Log10GI50 in experiment [1] is recorded as −7.39; in experiment [2] it was −6.80; in experiment [3] it was −6.46; in experiment [4] it was −7.00; in experiment [5], −6.59; in experiment [6] it was −7.50. In addition, the figures for the Log10GI50 in experiment [7] and in experiment [8] were −7.07 and −6.56, respectively. The Log10LC50 in experiment [1] is reported as −4.49; in experiment [2], −6.21; in experiment [3], −4.62; in experiment [4], more than −4.00; in experiment [5] it was more than −4.00; in experiment [6], −6.35. Moreover, the Log10LC50 in experiment [7] and in experiment [8] was more than −4.00 in each case. The Log10TGI50 in experiment [1] is −6.76; in experiment [2], −6.50; in experiment [3], −5.71; in experiment [4], more than −4.00; in experiment [5], more than −4.00; in experiment [6] it was −6.90. The Log10TGI50 in experiment [7] is listed as more than −4.00; in experiment [8], −5.94.
